Experimental data published in PubChem BioAssay AID1645864 (Buhrlage Lab, Dana-Farber Cancer Institute and Novartis …, 2021).
Activity calls are given as the source filed them.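 The calls were made as follows: active = maximal inhibition of USP17 at or above 30% in the confirmation dose-response, a value not among the printed readouts; inactive = the rest.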

These molecules were tested against Ubiquitin carboxyl-terminal hydrolase 17-like protein 5 (Homo sapiens) (UniProt A8MUK1) (assay: ubiquitin-specific protease 17 DUB inhibitors, concentration-effect assay, cell-free, verification of initial screening actives (AID 1645864)). Conditions: purified USP17, ubiquitin-rhodamine cleavage fluorescence, 3 h.
Ubiquitin carboxyl-terminal hydrolase 17-like protein 5 (Homo sapiens), sequence (A8MUK1 whole entry, looked up): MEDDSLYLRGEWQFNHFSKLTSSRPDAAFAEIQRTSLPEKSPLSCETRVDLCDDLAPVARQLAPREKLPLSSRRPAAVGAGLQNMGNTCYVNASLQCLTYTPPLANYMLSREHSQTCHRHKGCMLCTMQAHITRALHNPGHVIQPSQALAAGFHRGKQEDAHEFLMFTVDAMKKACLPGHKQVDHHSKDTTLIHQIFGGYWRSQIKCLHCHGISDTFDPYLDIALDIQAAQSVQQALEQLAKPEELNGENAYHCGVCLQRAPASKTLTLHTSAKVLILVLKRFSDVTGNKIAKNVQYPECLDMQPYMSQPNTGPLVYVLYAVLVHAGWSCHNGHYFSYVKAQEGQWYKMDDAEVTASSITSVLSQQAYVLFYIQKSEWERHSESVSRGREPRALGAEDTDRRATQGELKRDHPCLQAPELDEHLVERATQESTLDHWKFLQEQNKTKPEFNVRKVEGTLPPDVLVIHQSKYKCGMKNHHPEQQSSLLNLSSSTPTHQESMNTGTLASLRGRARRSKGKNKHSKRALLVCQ

| IC50 | Structure (SMILES) |
| --- | --- |
| > 50 µM (inactive) | O=C(Nc1ccc2c(c1)OCCO2)C1CCC(Cn2cnc3ccccc3c2=O)CC1 (configuration not stated) |
| > 50 µM (inactive) | CC(C(=O)NCc1ccc(F)cc1)n1cccc1C(=O)c1ccccc1 (configuration not stated) |
| 3.03 µM | COc1ccc(Cn2c(=O)[nH]c3cc(C(=O)NCCCN4CCN(c5cccc(Cl)c5)CC4)ccc3c2=O)cc1 |
| > 50 µM (inactive) | Cc1ccc(CSC2=NS(=O)(=O)c3ccccc3N2)cc1 |
| 5.5 µM | COc1ccc(NC(=O)c2[nH]nc3c2COc2ccccc2-3)c(OC)c1 |
| 40.1 µM | Cc1ccc(CN2CCCn3nc(C(=O)NCc4ccccc4C)cc3C2=O)cc1 |
| 10.1 µM | CCOc1cc(N2CCOCC2)c(OCC)cc1NC(=O)c1cc(-c2ccncc2)nc2ccccc12 |
| > 50 µM (inactive) | COc1cccc(-c2nc3cnccn3c2NCc2ccc3c(c2)OCO3)c1 |
| 40.6 µM | C=Cc1ccc(Cn2cc(S(=O)(=O)N3CCOCC3)ccc2=O)cc1 |
| 47.6 µM | O=C(Nc1ccc2c(c1)OCO2)c1cc(-c2cccnc2)n(-c2ccccc2)n1 |
| 1.91 µM | Cc1cc2nc(Oc3cccc(Cl)c3)c3ccccc3n2n1 |
| 30.9 µM | O=C1Nc2c(Cl)cc(Cl)cc2C1(O)c1sc(NC2CCCCC2)nc1-c1ccccc1 (configuration not stated) |
| 2.51 µM | CCOC(=O)c1ccc(NC(=O)Cn2c(=O)n(CC(=O)NCCc3ccc(OC)c(OC)c3)c(=O)c3sccc32)cc1 |
| 1.8 µM | Cn1c(=O)sc2cc(NC(=O)c3ccc(Br)cc3)ccc21 |
| 2.89 µM | CCOC(=O)c1ccc(NC(=O)Cn2c(=O)n(CC(=O)NCc3ccco3)c(=O)c3ccccc32)cc1 |
| > 50 µM (inactive) | O=C(CNS(=O)(=O)c1ccc(F)cc1)N1CCCC(c2nnc3ccccn23)C1 (configuration not stated) |
| 22.6 µM | O=C1Cc2ccccc2C(=O)N1c1ccc2c(c1)OCO2 |
| > 50 µM (inactive) | C=C1Nc2ccccc2C(=O)N1c1cccc(NC(=O)c2ccc(C)c(C)c2)c1 |
| > 50 µM (inactive) | COc1ccc(OC)c(-c2cn3ccn(-c4ccc5c(c4)CCC5)c(=O)c3n2)c1 |
| > 50 µM (inactive) | Cc1sc2ncnc(OCc3ccc(F)cc3Cl)c2c1C |
| > 50 µM (inactive) | CCN1C(SCc2ccc(F)cc2)=NS(=O)(=O)c2ccccc21 |
| 24.4 µM | Cc1cc(=O)c2c(O)oc(O)c3c(O)cc(=O)c1c32 |
| > 50 µM (inactive) | CCN(CC)c1nc(F)c2c(c1F)S(=O)(=O)CCN2Cc1cccnc1 |
| > 50 µM (inactive) | O=C(CNc1ccc(F)c(Cl)c1)Nc1ccc2c(c1)OCCO2 |
| > 50 µM (inactive) | CN(C)Cc1ccc(C(=O)Nc2ccc(-c3nccs3)cc2)cc1 |

| IC50 | Structure (SMILES) |
| --- | --- |
| 27.9 µM | CC(=O)Nc1ccc(S(=O)(=O)NCc2ccc(C(=O)NCc3ccc(C)cc3)cc2)cc1 |
| > 50 µM (inactive) | O=C(c1cc(Cl)ccc1Cl)N1CCN(c2ccc3nnc(-c4ccco4)n3n2)CC1 |
| 31 µM | CCc1ccccc1NC(=O)c1cc(-c2ccccn2)n[nH]1 |
| 6.52 µM | COc1ccc(NC(=O)Cn2c(CS(=O)(=O)c3ccc(C)cc3)nc3ccccc32)cc1 |
| 9.57 µM | CSc1cccc(C(=O)Nc2ccc(-c3nc4ccccc4[nH]3)cc2)c1 |
| > 50 µM (inactive) | N#Cc1ccc(Cn2nnc(-c3cccc(Cl)c3)n2)cc1 |
| 28.3 µM | Cc1cc(C)cc(-n2ccnc(SCC(=O)Nc3cccc(Cl)c3)c2=O)c1 |
| > 50 µM (inactive) | CC(C)(C)N=C1Nc2ncccc2NC12CCCN(C(=O)c1ccccc1)C2 (configuration not stated) |
| 39.7 µM | O=C(NCc1cccc(NC(=O)C2CC2)c1)Nc1cccc2ccccc12 |
| 18.5 µM | O=C(c1cn(-c2cccc(F)c2)nn1)N1CCc2ccccc2C1 |
| 31.3 µM | COc1ccc(CCNC(=O)CSc2cn(CCNC(=O)c3ccc(F)cc3)c3ccccc23)cc1OC |
| > 50 µM (inactive) | O=C(O)Cc1ccc(Nc2nc3ccccc3n3nnnc23)cc1 |
| > 50 µM (inactive) | O=C(Nc1ccc(Br)cn1)c1nc2ccccc2nc1N1CCCCC1 |
| 19.4 µM | O=C(CCCCn1c(=O)[nH]c2ccccc2c1=O)Nc1cccc(Cl)c1 |
| 35.3 µM | CCC1=C(c2ccc(C)cc2)S(=O)(=O)NC1=NCC(=O)NCc1ccccc1F |
| < 0.05 µM | Cc1ccc2c(C)nc(Nc3ncc4c(n3)CC(c3ccco3)CC4=O)nc2c1 (configuration not stated) |
| 2.8 µM | Nc1c(C(=O)NCc2ccc3c(c2)OCO3)nnn1Cc1ccc(Br)cc1F |
| 35.6 µM | Cc1nc(-c2ccccc2F)sc1C(=O)Nc1cccnc1 |
| > 50 µM (inactive) | COc1ccc(NC(=O)c2ccc(-n3nnnc3SC)cc2)cc1Cl |
| > 50 µM (inactive) | CC(=O)c1ccc(NC(=O)/C(=C/c2ccco2)n2nnnc2-c2ccccc2)cc1 |
| > 50 µM (inactive) | O=C(/C=C/c1ccccc1)N1CCN(C2=NS(=O)(=O)c3ccccc32)CC1 |
| 9.83 µM | CC(C)=CCCC1(C)OC2=C(C(=O)c3cc(O)cc(O)c3C2=O)[C@H]2C=C(C)CC[C@H]21 (some centres not stated) |
| > 50 µM (inactive) | COc1cc2c(cc1OC)-c1cc(NCc3cc(OC)c(OC)c(OC)c3)nc(=O)n1CC2 |
| 42.2 µM | O=C(Nc1cc(F)c2nc(N3CCOCC3)ccc2c1)c1ccc(Br)o1 |
| 25.3 µM | Cc1cccc(NC(=O)CN2C(=O)CC(c3ccccc3)S(=O)(=O)c3ccccc32)c1C (configuration not stated) |

| IC50 | Structure (SMILES) |
| --- | --- |
| > 50 µM (inactive) | Cc1nc(-c2cccc(NC(=O)c3ccccc3Cl)c2)no1 |
| 26.6 µM | COc1cccc(N2CCN(C(=O)Nc3ccc4c(c3)NC(=O)CO4)CC2)c1 |
| 0.0729 µM | COc1ccc2cc3c(nc2c1)OC(=O)N(CCc1cccc(F)c1)C3 |
| 8.53 µM | O=C(Nc1cccc2ccccc12)C1CCCN(S(=O)(=O)Cc2ccccc2)C1 (configuration not stated) |
| > 50 µM (inactive) | O=[N+]([O-])c1cccc(CSc2nnc(/C=C/c3ccccc3)o2)c1 |
| 38.1 µM | Cc1ccc(-c2cnc(C3CC3)o2)cc1S(=O)(=O)Nc1ccc(F)c(Cl)c1 |
| > 50 µM (inactive) | Cc1ccc2c(c1C)NC(=O)[C@]21[C@@H]2C(=O)N(c3cc(Cl)ccc3Cl)C(=O)[C@@H]2[C@@H]2CCCN21 |
| > 50 µM (inactive) | N#Cc1ccc(Cc2ncc(C(F)(F)F)cc2Cl)s1 |
| < 0.05 µM | COc1cc(Cl)ccc1Nc1ncc(C(=O)Nc2cc(OC)c(OC)c(OC)c2)c2ccccc12 |
| 38.5 µM | COc1cccc(S(=O)(=O)N2CCn3nc(C(C)(C)C)cc3C2)c1 |
| > 50 µM (inactive) | Cc1ccc(-c2nnc(-n3ncc(C#N)c3N)c3ccccc23)cc1C |
| > 50 µM (inactive) | Cc1nn(C)c2c1[C@@H](c1ccc(F)cc1)[C@H](NC(=O)c1ccccc1)C(=O)N2 |
| 35.5 µM | CCc1ccc(NC(=O)Cc2nnc(-c3ccc4ncccc4c3)o2)cc1 |
| > 50 µM (inactive) | Cc1c(C(=O)Nc2ccc(-c3nnc4n3CCCCC4)cc2)oc2c1ccc1ccccc12 |
| 27.9 µM | c1ccc(-n2nnc(-c3noc(-c4cccnc4)n3)c2-c2ccncc2)cc1 |
| 2.59 µM | Fc1ccc(-c2noc(-c3nnc(NCc4cccnc4)c4ccccc34)n2)cc1 |
| 2.62 µM | CC(=O)c1ccccc1NC(=O)COc1ccc(-c2ccc(C#N)cc2)cc1 |
| 24.9 µM | CN(C(=O)c1cccc2cccnc12)c1nc2c(s1)CCc1occc1-2 |
| 4.29 µM | COc1ccc(OCC(=O)Nc2ccc(C)c(OCc3cc(=O)n4ccccc4n3)c2)cc1 |
| 10.7 µM | Cc1cccc(NC(=O)Nc2nnc(CC(=O)NCc3ccccc3)s2)c1 |
| 35 µM | O=C(Cn1c(=O)n(CCCC(=O)N2CC=C(c3ccccc3)CC2)c(=O)c2ccccc21)NCCC1=CCCCC1 |
| 43.1 µM | COc1cccc(-c2cc(=O)[nH]c(Nc3nc(C)c4ccccc4n3)n2)c1 |
| 39 µM | Cn1c(SCc2ccccc2)nnc1-c1csc(-c2ccccc2)n1 |
| > 50 µM (inactive) | CC(C)Cc1cc(-c2nnc3sc(-c4ccco4)nn23)n[nH]1 |
| 18 µM | NS(=O)(=O)c1ccc(NC(=O)Cn2cnc3cc([N+](=O)[O-])ccc3c2=O)cc1 |

| IC50 | Structure (SMILES) |
| --- | --- |
| 12.3 µM | O=C(Nc1cccc(Cl)c1)N1CCN(c2cc(C(F)(F)F)ccn2)CC1 |
| > 50 µM (inactive) | Cc1c(-c2ccccc2)oc2c(C(=O)OCC(=O)Nc3ccccc3F)cccc2c1=O |
| > 50 µM (inactive) | CC(C)(C)c1cc(CCC(=O)Nc2c3c(nc4c2CCC4)CCCC3)cc(C(C)(C)C)c1O |
| 38.4 µM | O=C(Nc1cc(F)ccc1F)c1ccn(COc2ccc(F)c(Cl)c2)n1 |
| 5.27 µM | CC(C)(C)C(=O)Nc1ccc(C(=O)Nc2cccc(-c3nnc(-c4ccccc4)o3)c2)cc1 |
| 29.7 µM | C=C[C@]1(C)C=C2C(=O)[C@]3(O)OC(=O)[C@@]4(CCCC(C)(C)[C@H]34)[C@@]2(O)CC1 |
| 23.4 µM | O=C(O)c1ccccc1C(=O)Nc1ccc(SC(C(=O)Nc2cccc(Cl)c2)c2ccccc2)cc1 (configuration not stated) |
| > 50 µM (inactive) | c1cnc(-c2n[nH]c(C3CCN(C4CCNC4)CC3)n2)cn1 (configuration not stated) |
| 30 µM | Cc1nnc(Sc2cc(C(=O)NCCN3CCCC3)c3ccccc3n2)s1 |
| > 50 µM (inactive) | O=C(NC1CCCCC1)c1cc2c(cn1)[nH]c1ccccc12 |
| > 50 µM (inactive) | CCN1CCCC1CN(Cc1cc2cc(OC)ccc2[nH]c1=O)C(=O)NCc1ccccc1 (configuration not stated) |
| 16.5 µM | CCCCN1CC(C(=O)Nc2ccc(C(=O)Nc3ccc(Cl)cc3)cc2)CC1=O (configuration not stated) |
| > 50 µM (inactive) | O=c1[nH]c2ccccc2cc1CN(Cc1ccco1)S(=O)(=O)c1ccc(F)cc1 |
| > 50 µM (inactive) | CCCc1c(C(=O)O)c(O[C@H]2O[C@H](C)[C@@H](OC)[C@H](OC)[C@@H]2OC)cc2cc3c(c(O)c12)C(=O)c1c(O)cc(O[C@@H]2O[C@@H](C)[C@H](O[C@H]4O[C@H](C)[C@@H](OC)[C@H](OC)[C@@H]4O)[C@@H](OC)[C@H]2O)cc1C3=O |
| 3.29 µM | O=C(NCc1ccc(-c2nc3cnccc3o2)cc1)c1cc2ccccc2o1 |
| > 50 µM (inactive) | COc1ccc(C(=O)NCC(c2ccc3c(c2)CCCN3C)N2CCCC2)cc1 (configuration not stated) |
| 3.15 µM | COc1ccc(NC(=O)CNC(=O)c2ccc3nc(-n4cccc4)sc3c2)cc1 |
| > 50 µM (inactive) | CCCOc1ccc(C(=O)Nc2ccc(S(=O)(=O)Nc3cc(C)nc(C)n3)cc2)cc1 |
| 43 µM | Fc1ccccc1N1CCN(c2ncc3c(n2)CCN(Cc2ccccn2)C3)CC1 |
| 9.87 µM | Cc1ccc2c(c1)c(=O)c(C(=O)c1ccccc1)cn2CC(=O)Nc1ccccc1 |
| > 50 µM (inactive) | CCC1OC(O)(C(C)C(O)C(C)C2OC(=O)/C(C)=C/C(C)=CC(C)C(O)C(C)C/C(C)=C/C=C/C2OC)CC(OC(=O)/C=C/C(=O)NC2=C(O)CCC2=O)C1C (configuration not stated) |
| 17.8 µM | COc1cccc(NC(=O)Cc2sc(Nc3cc(C)cc(C)c3)nc2O)c1 |
